Data published in patent EP2229935A1, “Peptide derivatives or pharmaceutically acceptable salts thereof, method for producing the same, use of said derivatives and pharmaceutical composition” (Nebolsin, Vladimir Evgenievich, priority 1997, dated 1999).
Read-outs that look alike come from different tables or passages of the source. Marks after values point to notes of the source that are not given here.

Tests used:
[1] = test system: Lewis pulmonary carcinoma (LLC); assay: Lewis pulmonary carcinoma growth; format: in vivo; conditions: mice with LLC, day 12; for Growth inhibition percent: compound in drinking water; for Tumor volume (mm^3): compound in drinking water from 24 hours after transplantation
Experimental: Experiments were carried out on male mice with initial body mass 18-20 g. Each group included 10 animals. […] Administration of compounds II, III, IX, X, XII, XIV, XV, XVI, XVII, XIX, XXII, XLVII in drinking water was commenced 24 hours following transplantation and continued till the end of experiment. Effect of the compounds on Lewis rat pulmonary carcinoma (LLC) was estimated by day 12 of experiment by change in tumor volume expressed in mm^3.

superoxide anion-radical = assay: Superoxide anion-radical formation in the xantine-xantine oxidase system (chemiluminescence); format: biochemical
Experimental: Effect of the compounds of general formula (I) on change in chemiluminescence (CL) determined by hydroxyl radical ( OH) and superoxide anion-radical (O2-), in the model chemical and enzymatic systems.
5 to 10 ml of the test compounds dissolved in water were at needed concentration introduced into a cuvette. A total sample volume was 0.5 ml. • B. Superoxide anion-radical in the mixture of xantine and xantine oxidase [Afanas'ev I., Suslova T., Cheremisina Z. et al. Study of antioxidant properties of metal aspartates.
Incubation medium comprised 5 mM KH2PO4; 0.2 IU/ml xantine oxidase. Xantine at concentration 1 mM was introduced into sample through a dispencer. Luceginine (0.2 mM) was used in this system as luminiscence sensitizer.
CL signal indication was performed by its integration every 10 seconds for 5 minutes. CL flash recording duration after mixing ingredients, depended on a particular process kinetics. For each system, CL light sum (mV) was determined in the control samples without preparations (I-) and in samples comprising respective concentrations of preparations (I+). To estimate CL inhibition (activation) degree, the I+/I- ratio (in relative units) was found in the studied systems.
AOF formation and effect of the test compounds on this process were recorded on the Luminometer-1251 instrument (LKB, Sweden).
Because of such "distension" of the kinetic curve, chemiluminescence light sum was recorded during the first 3-5 minutes which reflected a total amount of light quantums produced in the system till achieving the maximum CL intensity values.

hydroxyl radical = assay: Hydroxyl radical formation in the Fenton reagent (chemiluminescence); format: biochemical
[2] = test system: Strain Aichi of type A human influenza virus; format: in vivo; conditions: for Survival rate in percent: series with Control - 2 (34.5); for Protection degree in percent: series with Control - 2
[3] = test system: hepatic P-450 cytochrome system; assay: Hexenal sleep duration in mice; format: in vivo; conditions: CBF1 mice; oral 3 days, 500 µg/kg; control 25.91 ± 1.57
Experimental: Change in Hexenal sleep (HS) duration is the in vivo measurable index of hepatic P-450 cytochrome system condition.
Studies were carried out on male mice of the lines BALB/c*h75, C57B1/6, CBA, DBA/2, first generation CBF1 and BDF1 hybrides, with initial mass 18-20 g, each group including 10 mice; and on mongrel male guinea pigs with initial mass 250-300 g, each group including 24 animals. All the test compounds (from II to LII) were administered orally in drinking water and for three days at doses 50 and 500 µg/kg. Hexenal hydrochloride at a dose […] of animal mass was administered 24 hours after the last drug administration, except for line BALB/c*h75 mice, which were administered Hexenal at a dose 60 µg/kg at the same terms, and guinea pigs for which Hexenal dose was 30 µg/kg. HS duration was determined in minutes.

mongrel male rats = assay: Hypolipidemic activity: experimental hyperlipidemia (atherogenic load); conditions: atherogenic diet; for Kcs: cholesterol index;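 on all read-outs here: serum drawn 18 h after the final dose from rats deprived of food over that interval, groups of 10 animals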
[4] = 0.1 mM, control of the series as in the table
[5] = 1 mM, control of the series 5616 ± 173, 5391 ± 195, 7290 ± 128 or 6776 ± 150
[6] = 0.01 mM, control of the series as in the table
[7] = 1 mM, control of the series 7839 ± 171, 1120 ± 163, 4974 ± 283 or 1332 ± 172
[8] = blood, oral last four days, 50 µg/kg
[9] = blood, oral last four days, 500 µg/kg
[10] = series with Control - 2 (9.1), […]
[11] = blood serum, 10 µg/kg for 10 days

O=C(O)CCCC(=O)NCCc1ccccc1 [XXI]
Growth inhibition percent [1]: 25% | Tumor volume (mm^3) [1]: 1023 ± 207 mm^3 | relative effect: 1+/I- (superoxide anion-radical; 0.1 mM): 0.89 | Chemiluminiscence intensity (mV) + σn-1 (superoxide anion-radical; [4]): 6460 ± 166 mV | relative effect: 1+/I- (superoxide anion-radical; 1 mM): 0.58 | Chemiluminiscence intensity (mV) + σn-1 (superoxide anion-radical; [5]): 4232 ± 146 mV | relative effect: I+/I- (hydroxyl radical; 0.01 mM): 0.81 | Chemiluminiscence intensity (mV) + σn-1 (hydroxyl radical; [6]): 4036 ± 186 mV | relative effect: I+/I- (hydroxyl radical; 0.1 mM): 0.66 | Chemiluminiscence intensity (mV) + σn-1 (hydroxyl radical; [4]): 3265 ± 184 mV | relative effect: I+/I- (hydroxyl radical; 1 mM): 0.05 | Chemiluminiscence intensity (mV) + σn-1 (hydroxyl radical; [7]): 228 ± 72 mV

CCCCCCCNC(=O)Cc1c[nH]cn1 [XXXIII, N-(IMIDAZOLYL-4-ACETHYL)-HEPTHYLAMINE]
Survival rate in percent ([2]; 50 µg/kg orally): 63.3% | Survival rate in percent ([2]; 500 µg/kg orally): 76.6*^2% | Protection degree in percent ([2]; 50 µg/kg orally): 28.8% | Protection degree in percent ([2]; 500 µg/kg orally): 76.6% | Hexenal sleep duration (minutes) [3]: 19.82 ± 2.12* minutes

COC(=O)[C@@H](N)CCC(=O)N[C@@H](Cc1c[nH]cn1)C(=O)O.Cl.Cl [compound XI, γ-L-GLUTAMYL HISTIDINE α-METHYL ETHER DICHLOROHYDRATE]
relative effect: 1+/I- (superoxide anion-radical; 0.1 mM): 0.82 | Chemiluminiscence intensity (mV) + σn-1 (superoxide anion-radical; [4]): 4621 ± 224 mV | relative effect: 1+/I- (superoxide anion-radical; 1 mM): 0.40 | Chemiluminiscence intensity (mV) + σn-1 (superoxide anion-radical; [5]): 2263 ± 278 mV | Hexenal sleep duration (minutes) [3]: 17.71 ± 0.66*** minutes | Chemiluminiscence intensity (mV) + σn-1 (hydroxyl radical; 1 µM, control of the series as in the table): 1116 ± 90 mV | Chemiluminiscence intensity (mV) + σn-1 (hydroxyl radical; [6]): 1124 ± 113 mV | relative effect: I+/I- (hydroxyl radical; 1 mM): 0.50 | Chemiluminiscence intensity (mV) + σn-1 (hydroxyl radical; [7]): 557 ± 52 mV

NCCCC(=O)NCCc1c[nH]cn1 [compound XLVII, γ-Aminobutyrylhistamine]
Growth inhibition percent [1]: 45% | Tumor volume (mm^3) [1]: 826 ± 119* mm^3 | HDL-CS (mongrel male rats; [8]): 44,1±1,9**^A | LDL-CS+ VLDL-CS (mongrel male rats; [8]): 42,4±1,7***^A | Total CS (mongrel male rats; [8]): 86,5±3,9*^A | HDL-CS (mongrel male rats; [9]): 40,8±4,8 | LDL-CS+ VLDL-CS (mongrel male rats; [9]): 50,8±3,6**^A | Total CS (mongrel male rats; [9]): 90,0±2,4 | Triglycerides (mongrel male rats; [9]): 116,7±10,8*^A | Kcs (mongrel male rats; oral last four days, 50 µg/kg): 0,96±0,04***^A | Kcs (mongrel male rats; oral last four days, 500 µg/kg): 1,27±0,09 | MLT [2, 10]: 10.0 days | MLT, days [2, 10]: 13.0*^2 days | Survival rate in percent ([2]; 50 µg/kg orally): 83.3*^2% | Survival rate in percent ([2]; 500 µg/kg orally): 79.3*^2% | Protection degree in percent ([2]; 50 µg/kg orally): 48.8% | Protection degree in percent ([2]; 500 µg/kg orally): 44.8%

O=C(O)CCCC(=O)NCCc1c[nH]c2ccc(O)cc12 [compound XV, N-GLUTARYLSEROTONIN]
Growth inhibition percent [1]: 63% | Tumor volume (mm^3) [1]: 889 ± 67** mm^3

COc1ccc2[nH]cc(CCNC(=O)CCCC(=O)O)c2c1 [compound XVI, N-GLUTARYL-5-O-METHYLSEROTONIN]
Growth inhibition percent [1]: 56% | Tumor volume (mm^3) [1]: 1076 ± 69** mm^3

O=C(O)CCCC(=O)NCCc1ccccn1 [compound XX, N-GLUTARYL-2-(2-AMINOETHYL)PYRIDINE]
Growth inhibition percent [1]: 16% | Tumor volume (mm^3) [1]: 1148 ± 112 mm^3 | relative effect: I+/I- (hydroxyl radical; 0.01 mM): 0.85 | Chemiluminiscence intensity (mV) + σn-1 (hydroxyl radical; [6]): 4205 ± 234 mV | relative effect: I+/I- (hydroxyl radical; 0.1 mM): 0.81 | Chemiluminiscence intensity (mV) + σn-1 (hydroxyl radical; [4]): 4018 ± 201 mV | relative effect: I+/I- (hydroxyl radical; 1 mM): 0.11 | Chemiluminiscence intensity (mV) + σn-1 (hydroxyl radical; [7]): 536 ± 124 mV

O=C(O)c1cccnc1 [nicotinic acid, reference compound]
HDL-CS (mongrel male rats; [11]): 42.1 ± 4.2***^1.2 | LDL-CS+ VLDL-CS (mongrel male rats; [11]): 25.7 ± 2.8***^2 | Total-CS (mongrel male rats; [11]): 65.7 ± 3.5 | Triglycerids (mongrel male rats; [11]): 89.4 ± 6.2***^2 | Kcs (mongrel male rats; 10 µg/kg for 10 days): 0.56***^2
